# Source: patent US20110173718A1, “HERBICIDE TOLERANT PLANTS” (SYNGENTA CROP PROTECTION, INC., priority 2008, published 2011)
# Several values for one entry are separate records, joined by “and”; a condition that tells them apart may be missing. Identical values can stand only once.
# Experiments:
# weeds [1] = test: Glasshouse weed control, HST inhibitors alone and with A22, post-emergence; type: in vivo; details: 14 DAT, A22 alone 2 g/ha, single replicate
# Protocol: (§1) In a further test, the results of which are depicted in tables 18 and 19, weed seeds are planted out in trays containing 50% peat/50% John Innes no. 3 soil and grown in the glass house at 24-27 C day; 18-21 C night and approximately a 15 h photoperiod. Humidity is ˜65% and light levels at bench level are up to 2 mmol/m^2. Again all spray chemicals are dissolved in 0.2% X77 surfactant and sprayed from a boom on a track sprayer moving at 2 mph with the nozzle set about 2 inches above the plant tops. The spray volume is […]. Sprays are carried out both pre-emergence and post-emergence over small plants at about 7-12 d post-emergence. Plants are assessed at 14 DAT with herbicidal damage scored on a scale from 0 to 100%. The HPPD inhibiting herbicide is compound A22 (4-hydroxy-3-[[2-(2-methoxyethoxy)methyl]-6-(trifluoromethyl)-3-pyridinylicarbonyl]-bicyclo[3.2.1]oct-3-en-2-one) which is sprayed at 2 g/ha both alone and in mixture with various HST herbicides. Results and spray rates are depicted in Tables 18 and 19. Again the Colby formula has been used to calculate synergy scores observed following treatment with the mixture based on the results obtained with the single components alone. Positive synergy is observed between the HPPD herbicide and a wide variety of HST inhibitor herbicides applied both pre and postemergence across a variety of weeds.
# weeds [2] = test: Glasshouse weed control, HST inhibitors alone and with A22, pre-emergence; type: in vivo; details: 14 DAT, rate 2 g/ha
# Protocol: as §1
structure (smiles),measurement,setting,value
"COCCOCc1nc(C(F)(F)F)ccc1C(=O)C1=C(O)C2CCC(C2)C1=O (stereo not drawn) [Compound A22, 4-hydroxy-3-[[2-(2-methoxyethoxy)methyl]-6-(trifluoromethyl)-3-pyridinylicarbonyl]-bicyclo[3.2.1]oct-3-en-2-one, reference compound]","% control score, Obs",weeds [1]; BRAPL,2%
same,"% control score, Obs",weeds [1]; DIGSA,5%
same,"% control score, Obs",weeds [1]; ECHCG,30%
same,"% control score, Obs",weeds [1]; PANMI,50% and 55%
same,"% control score, Obs",weeds [1]; SETFA,10% and 2%
same,"% control score, Obs",weeds [1]; SIDSP,20% and 15%
same,"BRAPL Obs, % control score",weeds [2]; BRAPL,0%
same,"DIGSA Obs, % control score",weeds [2]; DIGSA,2% and 0%
same,"ECHCG Obs, % control score",weeds [2]; ECHCG,5% and 0%
same,"PANMI Obs, % control score",weeds [2]; PANMI,0%
same,"SETFA Obs, % control score",weeds [2]; SETFA,5% and 0%
same,"SIDSP Obs, % control score",weeds [2]; SIDSP,2% and 0%
